Assay results as given in patent US6323240A, “4-phenyl-4-oxo-butanoic acid derivatives with kynurenine-3-hydroxylase inhibiting activity” (Pharmacia & Upjohn S.p.A., priority 1995, dated 2001).
pIC50: −log10 of the molar value.

How the values were obtained:
[1] = molecular target: T1, kynurenine-3-hydroxylase (Rattus norvegicus, UniProt O88867); assay: Kynurenine-3-hydroxylase assay in the rat brain (conversion of L-kynurenine to L-3-hydroxykynurenine, HPLC with coulometric detection); format: biochemical; conditions: rat brain homogenate; 50 μM L-kynurenine; pH 7.5; 60 min
Description: Kynurenine-3-hydroxylase Assay in the Rat Brain
Brain was homogenized in ice-cold 0.32 M sucrose and centrifuged at 12000×g for 30 min at 4° C. The pellet was washed three times with 0.32 M sucrose by centrifugation and suspended in 0.14 M KCl in 20 mM K-phosphate buffer at pH 7 (1 g tissue in 2 ml buffer).
The reaction mixture contained: 75 μl of suspended homogenate; 100 μl of substrate solution containing 50 mM K-phosphate buffer pH 7.5, 2 mM MgCl2, 0.4 mM NADPH, 50 μM L-kynurenine (final concentration), and 25 μl of different concentrations of inhibitor solutions. The reaction was stopped by addition of 200 μl of 1 M HClO4 after 60 min incubation. L-3-hydroxykynurenine formed was quantified by HPLC with coulometric detection at a working voltage of +0.2 V. The column was a 10 cm C18 reversed phase (3 μm. The mobile phase consisted of 950 ml distilled water, 20 ml acetonitrile, 9 ml triethylamine, 5.9 ml phosphoric acid, 100 mg sodium EDTA and 1.5 g heptanesulfonic acid. The flow rate was 1 ml/min.

[2] = molecular target: T1, kynurenine-3-hydroxylase; assay: Kynurenine-3-hydroxylase assay in the rat liver (radiometric, tritiated water release, rat liver mitochondrial extract); format: biochemical; design: Rat liver mitochondrial extract was used as enzymatic preparation for this assay; from tissue; host or cells: rat liver mitochondrial extract; conditions: 0.025 mM L-kynurenine, pH 8.1, 37° C., 30 min
Description: Kynurenine-3-hydroxylase Assay in the Rat Liver
The assay for kynurenine 3-hydroxylase was based on the enzymatic synthesis of tritiated water during the hydroxylation reaction. Radiolabeled water was quantified following selective adsorption of the isotopic substrate and its metabolite with activated charcoal.
Rat liver mitochondrial extract was used as enzymatic preparation for this assay.
The assay for kynurenine 3-hydroxylase activity was carried out at 37° C. for a time of 30 min. The reaction mixture of a total volume of […] was constituted of […] of suspended extract, 100 mM Tris/Cl^- buffer pH 8.1, 10 mM EDTA, 100 mM Kcl, 0.8 mM NADPH, 0.025 mM L-kynurenine, […] L-(3,5-^3 H)Kynurenine (10 Ci/mmol) and […] of different concentration of inhibitor solutions. After the incubation the reaction was terminated by the addition of 1 mL of 7.5% (w/v) activated charcoal, vortexed and centrifugated for 7 min.
A […] aliquot of supernatant was counted by scintillation spectroscopy in 5 ml of liquid scintillation.

[3] = tested on: ionotropic excitatory aminoacid receptors; conditions: preferentially acting at the glycine co-agonist site of the NMDA receptor; cited from earlier work
[4] = tested on: CNS; conditions: cited from earlier work
[5] = tested on: excitotoxic neuronal damage evoked by QUIN; conditions: co-injected with QUIN; cited from earlier work
[6] = tested on: N-methyl-D-aspartate (NMDA) receptor; conditions: cited from earlier work
[7] = tested on: neuronal cell cultures; conditions: relatively low concentrations; prolonged period of time or in combination with glutamate; cited from earlier work

T1 sequence (O88867 whole entry): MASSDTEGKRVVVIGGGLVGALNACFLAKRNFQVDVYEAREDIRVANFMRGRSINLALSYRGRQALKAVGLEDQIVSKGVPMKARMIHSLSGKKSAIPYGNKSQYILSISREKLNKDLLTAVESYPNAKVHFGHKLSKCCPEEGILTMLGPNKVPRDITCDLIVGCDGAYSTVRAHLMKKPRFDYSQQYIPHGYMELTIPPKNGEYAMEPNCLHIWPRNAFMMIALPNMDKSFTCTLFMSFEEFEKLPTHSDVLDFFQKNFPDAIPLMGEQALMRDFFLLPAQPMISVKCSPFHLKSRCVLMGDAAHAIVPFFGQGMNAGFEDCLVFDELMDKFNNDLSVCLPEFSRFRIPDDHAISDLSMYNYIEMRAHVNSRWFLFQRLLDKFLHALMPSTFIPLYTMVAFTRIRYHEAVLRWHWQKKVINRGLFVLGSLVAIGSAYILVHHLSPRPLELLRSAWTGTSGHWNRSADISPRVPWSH

CC(CC(=O)c1ccc(F)c(F)c1)C(=O)O (racemic) [PNU 157952, (R,S)-2-methyl-4-(3',4'-difluorophenyl)-4-oxo-butanoic acid]
pIC50 [1]: 5.41
pIC50 [2]: 4.26

COC(CC(=O)c1ccc(F)c(F)c1)C(=O)O (racemic) [PNU 158380, (R,S)-2-methoxy-4-(3',4'-difluorophenyl)-4-oxo-butanoic acid]
pIC50 [1]: 4.90
pIC50 [2]: 4.37

O=C(CC(Cl)C(=O)O)c1ccc(Cl)c(Cl)c1 (racemic) [PNU 158781, (R,S)-2-chloro-4-(3',4'-dichlorophenyl)-4-oxo-butanoic acid]
pIC50 [2]: 4.88

O=C(CC(O)C(=O)O)c1cccc(Cl)c1 (racemic) [PNU 158789, (R,S)-2-hydroxy-4-(3'-chlorophenyl)-4-oxo-butanoic acid]
pIC50 [1]: 6.35
pIC50 [2]: 5.74

COC(=O)C(O)CC(=O)c1ccc(Cl)c(Cl)c1 (racemic) [PNU 161211, Methyl(R,S)-2-hydroxy-4-(3',4'-dichlorophenyl)-4-oxo-butanoate]
pIC50 [1]: 5.51
pIC50 [2]: 5.25

CC(CC(=O)O)C(=O)c1ccc(Cl)c(Cl)c1 (racemic) [PNU 161243, (R,S)-3-methyl-4-(3',4'-dichlorophenyl)-4-oxo-butanoic acid]
pIC50 [1]: 4.84

COC(=O)C(CC(=O)c1ccc(Cl)c(Cl)c1)Cc1ccccc1 (racemic) [PNU 167531, (R,S)-Methyl-2-benzyl-4-(3',4'-dichlorophenyl)-4-oxo-butanoate]
pIC50 [2]: 5.72

O=C(O)CC(C(=O)c1ccc(Cl)c(Cl)c1)c1ccccc1 (racemic) [PNU 167541, (R,S)-3-phenyl-4-(3',4'-dichlorophenyl)-4-oxo-butanoic acid]
pIC50 [2]: 4.26

O=C(O)c1cc(=O)c2ccccc2[nH]1 [KYNA, kynurenic acid]
antagonism of the ionotropic excitatory aminoacid receptors [3]: broad spectrum antagonist
action when injected in the CNS [4]: neuroprotective agent
prevention of QUIN-evoked excitotoxic neuronal damage [5]: able to prevent the excitotoxic neuronal damage

O=C(O)CCC(=O)c1ccc(Cl)c(Cl)c1 [PNU 156588, 4-(3',4'-dichlorophenyl)-4-oxo-butanoic acid]
pIC50 [1]: 6.05
pIC50 [2]: 5.41

O=C(O)CCC(=O)c1ccc(F)c(F)c1 [PNU 157720, 4-(3',4'-difluorophenyl)-4-oxo-butanoic acid]
pIC50 [1]: 5.43
pIC50 [2]: 4.74

COC(=O)CCC(=O)c1ccc(Cl)c(Cl)c1 [PNU 158381, Methyl 4-(3',4'-dichlorophenyl)-4-oxo-butanoate]
pIC50 [2]: 5.24

C=C(CC(=O)c1ccc(Cl)c(Cl)c1)C(=O)O [PNU 158432, 2-methyliden-4-(3',4'-dichlorophenyl)-4-oxo-butanoic acid]
pIC50 [2]: 4.44

O=C(O)C(O)C(Cc1ccccc1)C(=O)c1ccc(Cl)c(Cl)c1 (centres unmarked) [PNU 167536, 2-hydroxy-3-benzyl-4-(3',4'-dichlorophenyl)-4-oxo-butanoic acid]
pIC50 [2]: 4.21

O=C(O)c1cccnc1C(=O)O [QUIN, quinolinic acid]
agonism at the NMDA receptor [6]: highly selective agonist
neurotoxicity in neuronal cell cultures [7]: neurotoxic
in vivo lesions and convulsions ([4]; in vivo): convulsions and axon sparing lesions
action when injected in the CNS [4]: neurotoxin
